Here are results for two compounds from patent US20250186450A1, “COMBINATION THERAPY COMPRISING DGK INHIBITORS and PD-1/PD-L1 INHIBITORS” (Incyte Corporation, priority 2023, published 2025).

Each structure is given as a SMILES string. Entries after “also recorded” stand apart in the source; their conditions may differ.

In test [1] the test system is CT26 syngeneic tumors overexpressing human PD-L1 (Clone299). In words: Human PD-1/human PD-L1 dual knock-in model. The format is in vivo, human PD-1/human PD-L1 dual Knock-In mice. On the procedure:
The in vivo effect of combining Compound 1 plus (R)-1-((7-cyano-2-(3′-(2-(difluoromethyl)-7-((3-hydroxypyrrolidin-1-yl)methyl)pyrido[3,2-d]pyrimidin-4-ylamino)-2,2′-dimethylbiphenyl-3-yl)benzo[d]oxazol-5-yl)methyl)piperidine-4-carboxylic acid (i.e., Compound A) was assessed in 8 to 10 weeks old human PD-1/human PD-L1 dual Knock-In mice (GemPharmatech, Shanghai, China) using CT26 syngeneic tumors overexpressing human PD-L1 (Clone299, Synthego, California). Both Compound 1 and Compound A were suspended in 5% N,N-dimethylacetamide (DMAC)+50 mM Citrate buffer in 0.5% methyl cellulose for oral administration. […] On day 17, tumor dimensions were measured by Vernier calipers, and volume estimated by the formula Volume=[L (long dimension)×W^2 (short dimension)]/2. […] Tumors were measured 3 times per week for the duration of the study. […]
The in vivo effect of Compound 2 plus Anti-PD-L1 (atezolizumab) was assessed in 8 to 10 weeks old human PD-1/human PD-L1 dual Knock-In mice (GemPharmatech, Shanghai, China) using CT26 syngeneic tumors overexpressing human PD-L1 (Clone299, Synthego, California). […] On day 12, tumor dimensions were measured by Vernier calipers, and volume estimated by the formula Volume=[L (long dimension)×W^2 (short dimension)]/2. […] Tumors were measured 3 times per week for the duration of the study. […]

Test [2] deals with CT26 syngeneic tumor model. In words: CT26 syngeneic tumor model, DGK inhibitor plus anti-PD-1 (RMP1-14). Particulars: for tumor growth delay vs control vehicle group: Compound 1 alone. The format is in vivo, Balb/C mice. As to the method: The in vivo effect of combining Compound 1 plus anti-PD-1 (RMP1-14, Bio X Cell) was assessed in the CT26 (CRL-2638, ATCC, Manassas, VA) syngeneic tumor model (see FIG. 1) in 6 to 8 weeks old Balb/C mice (Jackson laboratories). Compound 1 was suspended in 5% N,N-dimethylacetamide (DMAC)+50 mM Citrate buffer in 0.5% methyl cellulose for oral administration and RMP1-14 was suspended in saline for intraperitoneal administration. Briefly, the left flank of the mice was shaved the day prior to subcutaneous inoculation with 1×10^6 CT26 cells suspended in PBS. On day 7, tumor dimensions were measured by Vernier calipers, and volume estimated by the formula Volume=[L (long dimension)×W^2 (short dimension)]/2. Mice were randomized into 6 groups of 10 mice of approximate mean volume (˜150 mm^3). Tumors were measured 3 times per week for the duration of the study. Starting day 7, mice were dosed with (i) vehicle; (ii) 250 μg/mouse of RMP1-14; (iii) 10 mg/kg of Compound 1; (iv) 3 mg/kg of Compound 1; (v) 10 mg/kg of Compound 1 and 250 μg/mouse of RMP1-14; or (vi) 3 mg/kg of Compound 1 and 250 μg/mouse of RMP1-14. Compound 1 was administered orally once daily (QD) for 14 days, while RMP1-14 was dosed every 5 days (for a total of 3 doses).
In a separate experiment, mice were randomized on day 7 into 10 groups of 10 mice of approximate mean volume (˜120 mm^3). Tumors were measured 3 times a week for the duration of the efficacy study (day 22). Starting day 7, mice were dosed with (i) vehicle; (ii) 250 μg/mouse of RMP1-14; (iii) 10 mg/kg of Compound 1 QD; (iv) 10 mg/kg of Compound 1 Q2D; (v) 3 mg/kg of Compound 1 QD; (vi) 3 mg/kg of Compound 1 […]; (vii) 10 mg/kg of Compound 1 QD and 250 μg/mouse of RMP1-14; (viii) 10 mg/kg of Compound 1 Q2D and 250 μg/mouse of RMP1-14; (ix) 3 mg/kg of Compound 1 QD and 250 μg/mouse of RMP1-14; or (x) 3 mg/kg of Compound 1 Q2D and 250 μg/mouse of RMP1-14. Compound 1 was administered orally either daily (QD) or every other day (Q2D) for 10 days, while RMP1-14 was dosed every 5 days (for a total of 2 doses).
The in vivo effect of combining Compound 2 plus anti-PD-1 (RMP1-14, Bio X Cell) was assessed in the CT26 (CRL-2638, ATCC, Manassas, VA) syngeneic tumor model (see FIG. 6A-6B) in 6 to 8 weeks old Balb/C mice (Jackson laboratories). Compound 2 was suspended in 5% N,N-dimethylacetamide (DMAC)+50 mM Citrate buffer in 0.5% methyl cellulose for oral administration and RMP1-14 was suspended in saline for intraperitoneal administration. Briefly, the left flank of the mice was shaved the day prior to subcutaneous inoculation with 1×10^6 CT26 cells suspended in PBS. On day 7, tumor dimensions were measured by Vernier calipers, and volume estimated by the formula Volume=[L (long dimension)×W^2 (short dimension)]/2. Mice were randomized into 6 groups of 10 mice of approximate mean volume (˜130 mm^3). Tumors were measured 3 times per week for the duration of the study. Starting day 7, mice were dosed with (i) vehicle; (ii) 250 μg/mouse of RMP1-14 (Anti-PD-1); (iii) 1.5 mg/kg of Compound 2 QD; (iv) 1.5 mg/kg of Compound 2 QD and 250 μg/mouse of RMP1-14; (v) 1.5 mg/kg of Compound 2 Q2D; (vi) 1.5 mg/kg of Compound 2 Q2D and 250 μg/mouse of RMP1-14; (vii) 1.5 mg/kg of Compound 2 Q3D; or (viii) 1.5 mg/kg of Compound 2 Q3D and 250 μg/mouse of RMP1-14.

Consider `Cc1nc2c(N3C[C@@H](C)N(C(c4ccc(C(F)(F)F)cc4)C4CC(F)(F)C4)C[C@@H]3C)nc3nncn3c2n1C[C@@H]1CCCO1` (single isomer, unassigned) [Example 2], for which, in test [1] (1.5 mg/kg Compound 2 Q2D and Anti-PD-L1 (atezolizumab), FIG. 8), the “TGI, combined with Anti-PD-L1 mAb, vs Anti-PD-L1 mAb control group” value is given as “statistically significant; also recorded: significant TGI”. The “TGI, combined with anti-PD-1 mAb” value in test [2] (1.5 mg/kg Compound 2 Q2D and 250 μg/mouse RMP1-14, FIGS. 6A-6B) is “significant TGI”. For the same compound, the “TGI, combination groups vs respective single-arm control group” value in test [2] (1.5 mg/kg Compound 2 QD, Q2D or Q3D and 250 μg/mouse RMP1-14) is “statistically significant”. For the same compound, in test [2] (Compound 2 alone, 1.5 mg/kg QD, Q2D or Q3D, FIG. 6B), the “TGI vs vehicle control group” value is given as “None of the single treatment arm groups dosed with 1.5 mg/kg Compound 2 provided statistically significant TGI”.
For the compound `C[C@@H]1CN(c2nc3nncn3c3c2nnn3C[C@H]2CCCO2)[C@@H](C)CN1C(c1ccc(F)cc1)c1ccc(F)cc1` [Example 1, 4-((2S,5R)-4-(Bis(4-fluorophenyl)methyl)-2,5-dimethylpiperazin-1-yl)-1-(((R)-tetrahydrofuran-2-yl)methyl)-1H-[1,2,3]triazolo[4,5-e][1,2,4]triazolo[4,3-a]pyrimidine], the “combination effect on tumor growth delay (Bliss Independence analysis)” value is recorded as “synergistic effect in tumor growth delay” in test [1] (10 mg/kg Compound 1 QD with 25 mg/kg Compound A BID for 15 days, vs respective controls, FIG. 4); “synergistic effect in tumor growth delay” in test [2] (10 mg/kg or 3 mg/kg Compound 1 QD for 14 days with 250 μg RMP1-14 every 5 days, vs respective controls, FIG. 1); “synergistic effect in tumor growth delay” in test [2] (10 mg/kg or 3 mg/kg Compound 1 QD or Q2D for 10 days with 250 μg RMP1-14, vs respective controls, FIG. 2). In addition, the “tumor growth delay vs control vehicle group” value is on record as “therapeutic effect in delaying tumor growth” in test [2] (10 mg/kg orally QD for 14 days, FIG. 1); “therapeutic effect in delaying tumor growth” in test [2] (10 and 3 mg/kg QD for 10 days, separate experiment, FIG. 2). For the same compound, the “tumor volume vs RMP1-14 alone (Kruskal-Wallis Multiple Comparison Test)” value in test [2] (all groups tested against group (ii) 250 μg/mouse RMP1-14, FIG. 2) was “statistical significance”.
